Assay results as given in PMC12048343, “Discovery of a small molecule secreted clusterin enhancer that improves memory in Alzheimer’s disease mice” (npj Drug Discovery, 2025).
Converted amounts (≈) assume the structure as drawn. “Also recorded” adds a separate entry of the source. Where two headings read alike, the source gives them in different places.

Key:
[1] = Plasma binding assay (dialysis); assay type: in vitro ADME; conditions: dialysis 4.5 hours, 37 °C
Experimental: (§1) Brain tissue was homogenized in PBS (pH 7.4) (1: 3 weight(mg)/volume(µL)) and the protein concentration was determined using the Micro BCA™ Protein Assay Kit (Thermo Fisher Scientific, Cat#23235). Brain homogenate was clarified and diluted to 20 mg/mL in PBS (pH 7.4). Either brain homogenate or plasma was and added to Slide-A-Lyzer™ MINI Dialysis Devices, 10 K MWCO dialysis cups (Thermo Fisher Scientific, Cat#PI88401) in a 48-well plate containing PBS (500 µL; pH 7.4). 1 µL of 1 mM compound was added to the brain homogenate (Final Concentration: 2 µM compound, 0.5% DMSO) and incubated on a rocker for 4.5 hours at 37 °C. 50 µL of brain homogenate or plasma (within the dialysis cup) and PBS (within the 48-well plate) were transferred to new microcentrifuge tubes containing 400 µL of quenching reagent (100% Acetonitrile) containing internal standard. Solutions were clarified by centrifugation (16,000 x g, 5 min), and the supernatants were transferred to new tubes and lyophilized. Samples were reconstituted in 100 µL of 50/50/0.1 (Water/Acetonitrile/Formic Acid) prior to analysis via liquid chromatography-tandem mass spectrometry (LC-MS/MS). The % of the unbound drug (fu,bound) was calculated using the following equation:
(§2) % Bound = [1− (PBS chromatographic peak area/ brain homogenate or plasma chromatographic peak area)] x 100

[2] = Liver microsome stability assay; assay type: in vitro ADME; conditions: pH 7.4; human liver microsomes 0.5 mg/mL, NADPH, 37 °C, up to 120 min; read-out: Microsomal Stability t1/2
Experimental: An aliquot (1 µL) of test compound (1 mM, 100% DMSO) was added to an aqueous liver microsome solution (1000 µL, PBS pH 7.4, 0.5 mg/mL human liver microsomes (Thermo Fisher Scientific, Cat#HMMPL), 2 mM NADPH, 2 mM MgCl2) and incubated at 37 °C for 120 min. Aliquots (50 µL) of the microsome solution were taken at various time points (0, 5, 10, 15, 30, 60, 90, 120 min) and added to a reaction quenching solution (200 µL 100% Acetonitrile) containing an internal standard. Solutions were clarified by centrifugation (16,000 x g, 5 min), and the supernatants were transferred to new tubes and lyophilized. Samples were reconstituted in 100 µL of 50/50/0.1 (Water/Acetonitrile/Formic Acid) prior to analysis via liquid chromatography-tandem mass spectrometry (LC-MS/MS). Chromatographic peak areas normalized to the internal standard were plotted at each time point and the half-life (t1/2) of compound in liver microsomes was determined by using the trendline equation to calculate the time at which compound abundance was 50% of that at time point 0 (t0).

[3] = Blood-Brain Barrier (BBB) permeability assay (IAM column, Pm); assay type: in vitro ADME; conditions: pH 7.4; Pm > 1.0 = CNS+
Experimental: A liquid chromatography-ultraviolet/visible spectroscopy (LC-UV/Vis) assay was performed on a 1290 Infinity HPLC system (Agilent Technologies) with an HPLC column containing immobilized phosphatidylcholine (IAM.PC.DD, Regis Technologies, Cat#774011, 5 µm 300 Å 100 ×4.6 mm). The HPLC method was a mixture of 6.7 mM phosphate buffer saline (pH 7.4; solvent A) and acetonitrile (solvent B), and a gradient was used for the elution of the compounds (min/%B: 0/20, 20/60, 21/20, 30/20). The retention time of the compound (tr) and void volume time of the column (t0) were recorded. Blood-brain barrier (BBB) permeability (Pm) was calculated using the following equations as described by Yoon et al. (10.1177/1087057105281656):
KIAM = (tr − t0) / t0; Pm = (KIAM / MW^4) x 10^10
Compounds with a Pm > 1.0 were determined to be BBB permeable (CNS + ) at pH 7.

[4] = test system: sCLU secreted from human U-87 MG glioblastoma cells; assay: Human sCLU AlphaLISA on supernatant of U-87 MG cells (HTS, re-test, dose response); assay type: cell-based; conditions: for sCLU levels relative to DMSO control: 5 µM
Experimental: Cell culture supernatant (2 μL) was added to a 384-well proxy plate preloaded with AlphaLISA HiBlock buffer (2 µL, 1X, CAT#AL004C, Perkin Elmer). Then an anti-sCLU antibody mixture (2 µL, mAb J84, biotinylated (10 nM, Cat# 3717-6-1000, Mabtech) and mAb CLU aa 22-227 (Cat#AF7084, R&D Systems), Acceptor bead conjugated (50 µg/mL, Cat#6772001, Perkin Elmer)) was added and incubated at room temperature for 1 hour. AlphaScreen Streptavidin Donor beads (2 µL, Cat#6760002S, Perkin Elmer) were added, incubated for an additional 30 min in the dark, and the plate was read in an Envision plate reader.
Human glioblastoma U-87 MG cells were proliferated in EMEM with 10% FBS and 1% P/S (complete medium) in 10 cm dishes until approximately 90% confluent. Following trypsinization, a suspension of 2 × 10^5 cells/mL (25 µL) were added to 384-well plates containing complete medium (25 µL) and library compounds from 9 plates (5 µM). After incubation for 30 h at 37 °C and 5% CO2, 2 μL of cell culture supernatant were analyzed via human sCLU AlphaLISA as described above. Cell culture medium and cells were added to the 384-well plates using the MultiDrop. The BioMek FX was used to pin the drugs and transfer the cell culture supernatant. The MANTIS liquid handler was used to added human sCLU AlphaLISA reagents.
Human glioblastoma U-87 MG cells were proliferated in EMEM with 10% FBS and 1% P/S (complete medium) in 10 cm dishes until approximately 90% confluent. […] After incubation for 30 hours at 37 °C and 5% CO2, 2 μL of cell culture supernatant were analyzed via human sCLU AlphaLISA as described above.

Kinetic solubility = assay type: physicochemical; conditions: aqueous buffer, kinetic from dmso stock, PBS pH 7.4, 37 °C, 100 µM nominal
Experimental: Test compound (10 mM, 100% DMSO) was diluted separately into aqueous buffer (100 µM; PBS pH 7.4) and DMSO at various concentrations (1000, 100, 10, 1, 0.1 µM). The solutions were then incubated at 37 °C for 90 min and centrifuged (16000xg, 5 min). An aliquot of each supernatant was analyzed by UV/Vis (if possible) or LC-MS/MS. A standard curve was made by plotting the known amount of analyte per standard in DMSO vs. absorbance or chromatographic peak area. Kinetic solubility (mM) was calculated using the trendline equation with maximum absorbance or chromatographic peak area observed in the aqueous sample.

[5] = Brain tissue binding assay (dialysis); assay type: in vitro ADME; conditions: brain homogenate 20 mg/mL, 2 µM compound, dialysis 4.5 hours, 37 °C
Experimental: as §1, §2

[6] = test system: nCLU levels in U-87 MG cells; assay: nCLU levels in U-87 MG cells; assay type: cell-based, human; conditions: 5 µM
BRD2 = BRD2 (Homo sapiens, UniProt P25440); assay: BRD2 inhibition assay; assay type: biochemical
Sequence of BRD2 (P25440 whole entry): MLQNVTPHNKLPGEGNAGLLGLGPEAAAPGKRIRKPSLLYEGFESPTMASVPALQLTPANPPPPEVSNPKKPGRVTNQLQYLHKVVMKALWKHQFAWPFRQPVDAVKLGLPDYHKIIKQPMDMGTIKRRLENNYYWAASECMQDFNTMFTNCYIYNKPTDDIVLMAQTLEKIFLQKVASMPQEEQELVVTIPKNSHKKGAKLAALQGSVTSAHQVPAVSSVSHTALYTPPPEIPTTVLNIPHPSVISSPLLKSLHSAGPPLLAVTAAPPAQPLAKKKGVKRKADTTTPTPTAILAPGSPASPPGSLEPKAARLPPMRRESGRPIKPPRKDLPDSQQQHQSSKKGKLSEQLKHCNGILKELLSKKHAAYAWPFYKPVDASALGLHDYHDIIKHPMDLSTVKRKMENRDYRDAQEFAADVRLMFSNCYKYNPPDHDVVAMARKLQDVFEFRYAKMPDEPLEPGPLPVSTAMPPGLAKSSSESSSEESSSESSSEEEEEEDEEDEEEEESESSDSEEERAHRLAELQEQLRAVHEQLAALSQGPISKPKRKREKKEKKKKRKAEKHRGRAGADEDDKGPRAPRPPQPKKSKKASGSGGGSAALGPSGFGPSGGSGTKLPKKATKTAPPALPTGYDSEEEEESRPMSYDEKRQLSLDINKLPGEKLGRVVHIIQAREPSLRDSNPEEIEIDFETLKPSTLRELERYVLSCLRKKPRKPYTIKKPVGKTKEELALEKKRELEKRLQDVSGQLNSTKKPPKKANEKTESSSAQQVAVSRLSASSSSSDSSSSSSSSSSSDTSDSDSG

BRD4 = BRD4 (Homo sapiens, UniProt O60885); assay: BRD4 inhibition assay; assay type: biochemical
U-87 MG cells = assay: Cytotoxicity, MultiTox-Fluor (CNS gliotoxicity); conditions: U-87 MG cells, dose response (Fig. 2F)
Source text: Cell viability and toxicity were simultaneously assessed using the MultiTox-Fluor Multiplex Cytotoxicity Assay (Cat# PRG9200, Fisher Scientific) according to the manufacturer’s protocol.

[7] = Homo sapiens, U-87 MG cells, 30 h, AlphaLISA of supernatant, read-out: EC50 for sCLU increase
[8] = selective HDAC / BET inhibitors, dose response (Fig. S1), read-out: sCLU EC50
[9] = Homo sapiens, U-87 MG cells, dose response, text and figures, read-out: sCLU EC50

SMILES	Plasma Binding [1]	half-life at 1 µM [2]	PAMPA Pm [3]	EC50 [4, 7]	solubility kinetic at 90 min (Kinetic solubility)	Brain Tissue Binding [5]	other results
Cc1sc2c(c1C)C(c1ccc(Cl)cc1)=N[C@@H](CC(=O)OC(C)(C)C)c1nnc(C)n1-2 [(+)-JQ1, reference compound]	85 % bound	27 min	1.44	313 nM	86.5 µM (≈ 39.5 µg/mL)	87 % bound	nCLU levels [6]: not affecting nCLU levels
CCNC(=O)c1cc2c(-c3cc(C(C)(C)O)ccc3Oc3c(C)cc(F)cc3C)cn(C)c(=O)c2[nH]1 [ABBV-774]							potency as sCLU enhancer, comparison in words ([4]; U-87 MG cells, dose response): less potent sCLU enhancers than pan-BET inhibitors; EC50 [4, 8]: 1100 nM
CCCc1nn(C)c2c(=O)[nH]c(-c3cc(Cc4ccc(C(=O)Nc5ccccc5N)cc4)ccc3OCC)nc12 [CM-675]							EC50 [4, 8]: 6000 nM
Cc1sc2c(c1C)C(c1ccc(Cl)cc1)=N[C@@H](CC(=O)OC1CCCC1)c1nnc(C)n1-2 [DDL-351]	99 % bound	3 min	1.35	117 nM	57.5 µM (≈ 27 µg/mL)	94 % bound	IC50 (BRD2): 175 nM; IC50 (BRD4): 27 nM
Cc1sc2c(c1C)C(c1ccc(Cl)cc1)=N[C@@H](CC(=O)N1CCCC1)c1nnc(C)n1-2 [DDL-352]	96 % bound	62 min	0.98	1440 nM	> 100 µM	64 % bound	IC50 (BRD2; read-out: BRD2 IC50): 644 nM; IC50 (BRD4; read-out: BRD4 IC50): 105 nM
Cc1sc2c(c1C)C(c1ccc(Cl)cc1)=N[C@@H](CC(=O)NC1CCCC1)c1nnc(C)n1-2 [DDL-353]	93 % bound	8 min	1.08	977 nM	> 100 µM	79 % bound	IC50 (BRD2; read-out: BRD2 IC50): 385 nM; IC50 (BRD4; read-out: BRD4 IC50): 63 nM
Cc1sc2c(c1C)C(c1ccc(Cl)cc1)=N[C@@H](CC(=O)NCC(=O)OC(C)C)c1nnc(C)n1-2 [DDL-354]	91 % bound	12 min	0.76	676 nM	91.1 µM (≈ 45.6 µg/mL)	67 % bound	IC50 (BRD2; read-out: BRD2 IC50): 382 nM; IC50 (BRD4; read-out: BRD4 IC50): 48 nM
Cc1sc2c(c1C)C(c1ccc(Cl)cc1)=N[C@@H](CC(=O)OC1CCC1)c1nnc(C)n1-2 [DDL-355]	86 % bound	27 min	1.42	99 nM	63.7 µM (≈ 29 µg/mL)	88 % bound	IC50 (BRD2): 163 nM; IC50 (BRD4): 19 nM
CCCCOC(=O)C[C@@H]1N=C(c2ccc(Cl)cc2)c2c(sc(C)c2C)-n2c(C)nnc21 [DDL-358]	98 % bound	14 min	1.42	446 nM	59.3 µM (≈ 27.1 µg/mL)	93 % bound	IC50 (BRD2): 207 nM; IC50 (BRD4): 28 nM
Cc1sc2c(c1C)C(c1ccc(Cl)cc1)=NC(CC(=O)NC(C)C(=O)OC(C)C)c1nnc(C)n1-2 (centres unmarked) [DDL-359]	94 % bound	13 min	0.71	2340 nM	> 100 µM	44 % bound	IC50 (BRD2; read-out: BRD2 IC50): 130 nM; IC50 (BRD4; read-out: BRD4 IC50): 353 nM
Cc1sc2c(c1C)C(c1ccc(Cl)cc1)=N[C@@H](CC(=O)NO)c1nnc(C)n1-2 [DDL-360]	88 % bound	> 120 min	1.09	631 nM	> 100 µM	59 % bound	IC50 (BRD2; read-out: BRD2 IC50): 395 nM; IC50 (BRD4; read-out: BRD4 IC50): 70 nM
COc1cc2c(cc1-c1c(C)noc1C)ncc1[nH]c(=O)n(C(C)c3ccccn3)c12 (centres unmarked) [I-BET151]							EC50 [4, 9]: 617 nM; sCLU levels relative to DMSO control ([4]; U-87 MG cells): increased sCLU; also recorded: significantly increase sCLU levels; nCLU levels [6]: not affecting nCLU levels
O=C(NO)c1ccc(CNc2cccc3cccnc23)cc1 [MPT0G211]							EC50 [4, 8]: 10000 nM
Cc1cc(/N=N/c2ccc(S(=O)(=O)Nc3ccccn3)cc2)c(N)cc1O [MS436]							potency as sCLU enhancer, comparison in words ([4]; U-87 MG cells, dose response): less potent sCLU enhancers than pan-BET inhibitors
Nc1cc(F)ccc1NC(=O)/C=C/c1cnn(C/C=C/c2ccccc2)c1 [RGFP966]							EC50 ([4]; Homo sapiens, U-87 MG, selective HDAC / BET inhibitors, dose response 2-5000 nM (Fig. S1), read-out: sCLU EC50): 10100 nM
O=C(/C=C/c1cccc(S(=O)(=O)Nc2ccccc2)c1)NO [belinostat]							EC50 [4, 9]: 1120 nM; sCLU levels relative to DMSO control ([4]; U-87 MG cells): increased sCLU; cytotoxicity, comparison in words (U-87 MG cells): significant differences between belinostat and the BET inhibitors at the highest concentrations tested; nCLU levels [6]: not affecting nCLU levels
COc1cc(/C=C/C(=O)N2CCC=CC2=O)cc(OC)c1OC [piperlongumine]							sCLU levels relative to DMSO control ([4]; U-87 MG cells): significantly increase sCLU levels
O=C(CCCCCCC(=O)Nc1ccccc1)NO [vorinostat]							nCLU levels [6]: not affecting nCLU levels
